Laboratory results published in publication PMC3110009 (ACS medicinal chemistry letters, 2011).

Assays:
[1] = biological target: dopamine D2 receptor (D2^high / D2^low) (Rattus norvegicus, UniProt P61169); format: binding
[2] = biological target: dopamine D3 receptor (human D3 clone) (Homo sapiens, UniProt P35462); assay: Competitive binding at human D3 clone, [3H]domperidone
Sequence of dopamine D3 receptor (human D3 clone) (P35462 whole entry): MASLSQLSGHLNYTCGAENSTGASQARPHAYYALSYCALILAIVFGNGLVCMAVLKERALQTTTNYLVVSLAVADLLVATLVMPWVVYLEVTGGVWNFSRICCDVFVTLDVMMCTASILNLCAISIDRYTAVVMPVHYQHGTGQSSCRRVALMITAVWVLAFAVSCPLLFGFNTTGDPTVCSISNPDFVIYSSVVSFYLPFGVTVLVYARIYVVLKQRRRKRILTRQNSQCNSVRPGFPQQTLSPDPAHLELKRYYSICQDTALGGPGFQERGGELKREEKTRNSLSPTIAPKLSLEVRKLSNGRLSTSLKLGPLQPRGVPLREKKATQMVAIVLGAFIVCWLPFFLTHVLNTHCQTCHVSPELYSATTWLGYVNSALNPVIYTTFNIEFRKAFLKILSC

Sequence of dopamine D2 receptor (D2^high / D2^low) (P61169 1-415 isoform P61169-2): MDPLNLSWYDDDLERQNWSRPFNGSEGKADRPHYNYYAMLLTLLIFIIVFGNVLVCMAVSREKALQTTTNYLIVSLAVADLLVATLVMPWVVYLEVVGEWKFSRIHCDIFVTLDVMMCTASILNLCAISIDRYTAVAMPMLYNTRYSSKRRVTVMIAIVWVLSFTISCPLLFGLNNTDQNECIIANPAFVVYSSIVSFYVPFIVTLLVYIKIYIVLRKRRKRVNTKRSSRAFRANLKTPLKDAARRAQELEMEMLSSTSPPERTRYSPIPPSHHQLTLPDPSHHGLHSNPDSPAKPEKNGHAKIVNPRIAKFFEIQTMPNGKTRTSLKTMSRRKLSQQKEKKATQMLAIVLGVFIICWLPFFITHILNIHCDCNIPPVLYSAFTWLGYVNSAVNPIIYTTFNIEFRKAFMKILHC

CCN1CCc2cc(OCCF)cc3c2[C@H]1Cc1ccc(O)c(O)c1-3 [Compound 8d]
fold improvement in D2^high binding affinity ([1]; 2-fluoroethoxy analog versus N-ethyl 2-fluoropropanoxy analog 8c): more than 2 fold

CN1CCc2cc(OCCCF)cc3c2[C@H]1Cc1ccc(O)c(O)c1-3 [Compound 8e]
Ki D3^high ([2]; high affinity state of D3): did not exhibit any D3^high affinity

CCN1CCc2cc(OCCCF)cc3c2[C@H]1Cc1ccc(O)c(O)c1-3 [Compound 8c, N-ethyl-2-fluoropropanoxy catechol-aporphine]
fold increase in D2^high affinity ([1]; in comparison to 8a): ~4 fold

CN1CCc2cc(OCCF)cc3c2[C@H]1Cc1ccc(O)c(O)c1-3 [Compound 8f]
Ki D3 [3H]domperidone ([2]; human D3 clone, SD): no appreciable affinity to D3
